Measurements published in EPA's ToxValDB 9.5 (doi:10.2903/j.efsa.2010.1406).

Assays:
[1] = subchronic; duration: 90 days
[2] = subchronic, duration: 90 days, oral, diet

With `Cc1cc(SC(=O)CC(C)C)c(C)o1` [2,5-Dimethyl-3-thioisovalerylfuran] the NOEL (Rattus norvegicus; subchronic, duration: 90 days) was 0.73 mg/kg-day.
Molecule `CSC(=O)c1ccco1` [2-Furancarbothioic acid, S-methyl ester] has an NOAEL [1] of 6.7 mg/kg-day.
For `CC(=O)SC1=C(C)OCC1` [2-Methyl-3-thioacetoxy-4,5-dihydrofuran], the NOEL (Rattus norvegicus; chronic, duration: 1 years, oral, diet) was 8.3 mg/kg-day.
`CC(=O)CC(C)SCc1ccco1` (centres undefined) [4-{[(Furan-2-yl)methyl]sulfanyl}pentan-2-one] gave an NOAEL (Rattus norvegicus; [2]) of 3.76 mg/kg-day.
Work on `Cc1occc1SSSSc1ccoc1C` [Bis(2-methyl-3-furyl) tetrasulfide] yielded an NOEL (Rattus norvegicus; subchronic, duration: 90 days) of 0.56 mg/kg-day.
With `Cc1occc1SSc1ccoc1C` [Bis(2-methyl-3-furyl)disulfide] the NOEL (Rattus norvegicus; [2]) was 0.45 mg/kg-day.
With `CCOC(=O)CCSCc1ccco1` [Ethyl 3-(furfurylthio)propionate] the NOEL (Rattus norvegicus; subchronic, duration: 90 days) was 17 mg/kg-day.
With `Cc1cc(SSc2cc(C)oc2C)c(C)o1` [Furan, 3,3'-dithiobis[2,5-dimethyl-] the NOEL (Rattus norvegicus; [2]) was 0.45 mg/kg-day.
In the case of `CCSC(C)=O` [S-Ethyl thiolacetate], the NOAEL [1] is reported as 6.7 mg/kg-day.
